# Test results reported in a melting point compilation (Tetko et al.; mined from patent text by program, amines drawn as free bases though some values may be those of a salt).
row,SMILES,melting point
1,O=S1(=O)NC2CCCN2c2ccc(Oc3ccc(Cc4nnn[nH]4)cc3)cc21 (stereo not given),209 to 212 °C
2,O=S1(=O)c2ccccc2N(c2ccc(O)cc2)c2ccccc21,308 to 311 °C
3,O=C(O)CNC(=O)c1nc(Cl)c2cc(OCc3ccccc3)ccc2c1O,194 to 196 °C
4,COc1ncccc1C(=O)NCC1CCN(C[C@H]2COc3ccc(Cl)cc3O2)CC1,72 to 75 °C
5,FC(F)(F)c1ccc2c(c1)C(c1ccccc1)=NCc1nncn1-2,258 to 260 °C
6,CNc1nc(-c2cccc(-c3cncc4ccccc34)c2)c2cc(OC)c(OC)cc2n1,181 to 183 °C
7,CCCN1CCC(c2ccccc2)=C(C(=O)NOCc2ccccc2)C1,143 to 145 °C
8,CCCCCc1ccc(-c2ccc(C(=O)O)cc2)cc1,174 °C
9,O=C(CNC(=O)OCc1ccccc1)Nc1ccccc1C(=O)c1cccs1,115 to 116 °C
10,CC(C)(C)c1ccc(OCC(O)CN2CCCC3(CSC4=C(O3)c3ccccc3C(=O)C4=O)C2)cc1 (stereo not given),90 to 92 °C
11,Nc1nc(Cl)cc(NCC2(CO)CC(O)C2)n1 (stereo not given),136 to 139 °C
12,COc1cccc2sc3cc(=O)ccc-3nc12,206 to 207 °C
13,Cc1c(C=CC=O)c2c(c(C)c1OCc1ccccc1)CCC(C)(C)O2,89 to 99.5 °C
14,COc1cccc2c1Sc1c(OC)cccc1C2(CCOS(C)(=O)=O)CCOS(C)(=O)=O,176 to 178 °C
15,O=C1NCCC1=Cc1ccc(C2=NCCO2)cc1,258 to 262 °C
16,O=c1c(Cc2ccncc2)c(-c2ccc(Br)cc2)[nH]c2ccccc12,232 to 234 °C
17,Cc1nc(C)c(Cl)c(NCc2cc(OCC(F)(F)F)c(OCc3ccccc3)c(Br)n2)n1,97 to 98 °C
18,COc1nc(NCCCN2CCOCC2)nc(OC)c1NC(=O)c1csc(Oc2cccc(C(C)(C)C)c2)n1,68 °C
19,CC(C)Oc1ccc(/C=C(\NC(=O)c2ccc(OCCC3C=CCC3)cc2)C(=O)NCCO)cc1 (stereo not given),67 to 70 °C
20,CN(C(=O)c1nnc2ccccc2c1O)c1ccccn1,237 to 239 °C
21,O=C(N[C@@H](Cn1cccn1)C(=O)O)OCc1ccccc1,166 to 168 °C
22,CCCCc1ncc(CNC(Cc2ccccc2)C(=O)O)n1Cc1ccccc1Cl (stereo not given),141 to 143 °C
23,c1ccc2c(c1)[nH]c1c2nc2ncccn21,96 to 98 °C
24,COCC1CC(Cn2ccnc2)(c2ccc(Cl)cc2)N(C)O1 (stereo not given),123 to 126 °C
25,COc1ccccc1CN1CCC(=O)C(C(c2ccccc2)c2ccc(F)cc2)C1 (stereo not given),115 to 116 °C

row,SMILES,melting point
1,CCOc1cccc(Cn2ncc3c(N4CCN(C(=O)OC(C)(C)C)CC4)ncnc32)n1,130 to 132 °C
2,Cc1ccc(C=NNc2ncnc3ccccc23)cc1,211 to 214 °C
3,Cc1cc(CCCCCOc2c(Cl)cc(C3=NCCO3)cc2Br)on1,41 to 42 °C
4,COC(=O)c1ccc(NC(=O)c2cc(C(C)C)c(C(C)C)s2)cc1OC,172 to 173 °C
5,N#Cc1ccc2[nH]c(=O)c3ccccc3c(=O)c2c1,> 300 °C
6,CON=C(C#CCN1CCOCC1)C(=O)OC,43 to 45 °C
7,COC(=O)CCNc1ccccc1CNC(=O)C1Cc2ccccc2N1S(=O)(=O)c1ccc(-c2cccc(C(F)(F)F)c2)cc1 (stereo not given),60 °C
8,Cc1cc(=O)n2cccc(O)c2n1,144 to 145 °C
9,CCN(CC)CCCNc1ccc(-c2ccnc(Nc3cc(OC)c(OC)c(OC)c3)n2)cn1,67 °C
10,COc1cc(SC2SCC(O)C(O)C2O)cc(OC)c1OC (stereo not given),166 °C
11,CCOC(=O)c1cc2n(C)c3ccccc3c(=O)n2n1,239 to 241 °C
12,CC(C)COc1c(-c2ccc(S(C)(=O)=O)cc2)cnn(-c2ccc(F)c(F)c2)c1=O,116 to 117 °C
13,CC1=C(C(=O)O)C(c2ccc(F)c(Br)c2)C2=C(CCC2=O)N1 (stereo not given),211 to 214 °C
14,O=C(O)c1cccc(Oc2ccc(C(F)(F)F)cc2Cl)c1,116 to 119 °C
15,O=C1C(CCC(O)c2ccc(F)cc2)C(c2ccc(-c3ccc(C4OC(CO)C(O)C(O)C4O)cc3)cc2O)N1c1ccccc1 (stereo not given),152 to 160 °C
16,CN(C)n1cc(C(=O)O)c(=O)c2cc(F)c(Cl)cc21,255 to 256 °C
17,CCn1c(N)nc(N2CCc3ccccc3CC2)c(C#N)c1=O,195 to 203 °C
18,O=C1CCCC(=O)c2cc(OCc3ccccc3)ccc2N1,169 to 170 °C
19,O=C(O)COc1ccc(SCc2ccc(OCc3ccc(OC(F)(F)F)cc3)cc2)c2c1CCC2,140 to 142 °C
20,CCOC(=O)c1ccc(N(C)Cc2ccc(Cl)cc2)cc1,106 to 107 °C
21,Cc1ccc(I)cc1Cc1ccc(-c2ccc(F)cc2)s1,109 to 110 °C
22,COC(=O)c1csc(-c2cc3ccccc3n2C)n1,124 to 127 °C
23,CCOC(=O)C(Cc1c[nH]c2ccccc12)(NC=O)C(=O)OCC,179 to 180 °C
24,CCOC(=O)/C(C#N)=C/c1c(OC)cccc1OC,99 to 101 °C
25,O=C(Nc1ccc(OC(F)(F)F)cc1)N1CC(c2sncc2C(F)(F)F)C(c2ccc(Cl)cc2)=N1 (stereo not given),101 to 104 °C

row,SMILES,melting point
1,COC(=O)COc1ccc2ccc(O)c(C(C)=O)c2c1,113 to 114 °C
2,C=C1N(c2ccccc2)C(=O)OC12CCN(C(=O)N1CCN(C)CC1)CC2,139 to 140 °C
3,CC(C)(C)OC(=O)NC(C(=O)Nc1n[nH]c(=S)s1)c1ccccc1 (stereo not given),194 to 195 °C
4,CC1(C)c2cc(O)ccc2OC1CO (stereo not given),79 to 80 °C
5,CCOC(CN1C(=O)C2=C(c3ccsc3)N(CC(OCC)OCC)C(=O)C2=C1c1ccsc1)OCC,166 to 167 °C
6,OCc1ccnc(Br)c1,63.3 to 64.4 °C
7,Nc1cnccc1C(=O)Nc1ccc(-n2nc(C(F)(F)F)cc2C(F)(F)F)cc1,101 to 102 °C
8,COCC(=O)Nc1cccc(C2(c3ccncc3)N=C(N)N(C)C2=O)c1 (stereo not given),92 to 93 °C
9,O=C(COCc1ccccc1)NC(C(=O)Nc1n[nH]c(=S)s1)c1ccccc1 (stereo not given),96 to 100 °C
10,N=C(N)c1ccc2cc(OC(=O)C3CCC3)ccc2c1,225 to 230 °C
11,O=C(Nc1ccc(C[C@H](NS(=O)(=O)N2CCSCC2)C(=O)O)cc1)c1c(Cl)cncc1Cl,173 °C
12,COc1ccc(CC(=O)N2CCn3c(c(C(N)=O)c(Cl)c3-c3ccccc3)C2)cc1,146 to 148 °C
13,Nc1nc2ccccc2c2c1ncn2CC1CCCCO1 (stereo not given),206 to 210 °C
14,Cc1noc([C@@H](Cc2ccccc2)NC(=O)[C@@H](Cc2ccc3ccccc3c2)NC(=O)OC(C)(C)C)n1,148 to 150 °C
15,CN1C(=O)N(N=Cc2cccnc2)Cc2cc(C(F)(C(F)(F)F)C(F)(F)F)ccc21,> 300 °C
16,CCN(CC)C(=O)CCc1nc(-c2ccccc2)nc2ccccc12,103 °C
17,COC(=O)C(C)(C)N1CCC(N(Cc2ccc(-c3ccc(C(F)(F)F)cc3)cc2)C(=O)Cn2c(CCc3cccc(F)c3F)nc(=O)c3cccnc32)CC1,150 °C
18,N=C(N)NC(=O)Cn1c(Cc2ccccc2)ccc1-c1ccccc1,82 to 84 °C
19,ClCc1cccc2c(-c3ccccc3)nccc12,104 °C
20,O=C(Nc1ccccc1)Nc1cc(Br)nc(Br)c1,237 to 239 °C
21,CCC(CC)(NC(=O)CCn1cnc(CC#N)c1)c1ccccc1,121 to 122 °C
22,CC(C)OC(=O)n1ncc2cc(C(O)(c3cn(C)c4ccccc34)C(F)(F)F)ccc21 (stereo not given),105 to 106 °C
23,CC(C)(OCc1nn(Cc2ccccc2)c2ccccc12)C(=O)NNC(N)=O,174 to 175 °C
24,Cc1nn(-c2ccccn2)c2[nH]c3cc(F)c(F)cc3c(=O)c12,274 to 277 °C
25,NC(=O)c1ccccc1N1CCN(Cc2cn3cc(Cl)ccc3n2)CC1,178 to 179 °C

row,SMILES,melting point
1,Cc1ccc(-c2cc(CNC(CO)CO)c(=O)n(CC(C)C)n2)cc1,134 to 135 °C
2,O=C(C(=O)c1ccc(Oc2cccc(Br)c2)cc1)c1ccccc1,75 to 76 °C
3,CC(=O)N(O)Cc1ccc(OCCN(C)c2nc3ccccc3o2)cc1,135 to 136 °C
4,N=C(NO)c1ccc(S(N)(=O)=O)s1,189 °C
5,Cc1nn(-c2ccccn2)c2nc3ccccc3cc12,153 to 154 °C
6,CCCC(=O)N(Cc1ccc(OC(F)(F)F)cc1)c1cc(Cl)cc(-c2nnn[nH]2)c1,179 °C
7,O=Cc1cc(O)c(O)c(C(F)(F)F)c1,188 to 192 °C
8,O=C1Nc2cc(F)ccc2N2CCN(Cc3ccncc3)CC12 (stereo not given),269 to 272 °C
9,O=c1oc2cccc(O)c2c2ccc([N+](=O)[O-])cc12,> 260 °C
10,COc1ccc(Cc2ccc3nc(N)nc(N)c3c2)cc1,207 to 209 °C
11,C#CCOc1ccc2c(Cl)nnc(C)c2c1,178 to 180 °C
12,Nc1ccc(OC2=C(Oc3ccc(N)cc3C(F)(F)F)C(F)(F)C(F)(F)C2(F)F)c(C(F)(F)F)c1,88 to 93 °C
13,CN1C(=O)C2C3CCC(C3)C2(c2ccc3c(c2)CCCC3)C1=O (stereo not given),108 to 114 °C
14,Cc1ncc(C=CC=CC(=O)O)s1,220 to 222 °C
15,CCn1cc(C=O)c(-c2ccc([N+](=O)[O-])o2)n1,145 to 146 °C
16,CC(C)SC1NC(=O)C1NC(=O)COc1ccccc1 (stereo not given),128 to 130 °C
17,N#Cc1ccc(-c2ccc(-c3ccc(C#N)nc3)o2)cc1,276 to 277 °C
18,O=C1c2ccc(F)cc2C(=O)N1CC(=O)N1c2ccccc2N(Cc2ccccc2)C(=O)[C@H]2CCC[C@H]21 (relative stereo),235 to 236 °C
19,O=C(Nc1ccc2ccc(-c3ccc(F)cc3)nc2n1)c1cccc(Br)c1,210 °C
20,COc1c(OC)c(OC)c2c(=O)cc(-c3ccc(O)cc3)oc2c1OC,187 to 188 °C
21,COc1ccc(CCNC(=O)COCCC(=O)NCCc2ccccc2)cc1OC,108 to 110 °C
22,Cn1c(COc2ccc(CC3SC(=O)NC3=O)cc2)nc2ccccc21 (stereo not given),230 to 231 °C
23,CCc1nc2c(N)nc3cc(CCCNS(C)(=O)=O)ccc3c2n1CC1CCOCC1,168 to 170 °C
24,C/C(=C\c1ccc(C(=O)O)cc1)c1ccc2c(c1)OCCO2,172 to 173 °C
25,CCCC(=O)c1ccc(C(CCC)CC(=O)Nc2cc(C(N)=O)ccc2C(C)(C)C)c(OC)c1 (stereo not given),193 to 194 °C
